Measured values from patent US12629363B2, “Prophylaxis and treatment of angioedema” (PHARVARIS GMBH, priority 2020, dated 2026).
Read-outs that look alike come from different tables or passages of the source.

Key:
[1] = Single ascending dose study in healthy volunteers, plasma PK (Example 2); type: in vivo, human; conditions: for concentration at 0.25 h: read-out: C0.25h; for Vd/F: read-out: Vz/F
CYP3A4 = CYP3A4 (Homo sapiens, UniProt P08684); assay: In vitro CYP3A4 substrate data; type: in vitro ADME
[2] = Drug-drug interaction trial with itraconazole, safety and tolerability (Example 5); type: in vivo, human; conditions: single 12 mg oral doses on Day 1 and Day 7 (with itraconazole)
Text: Thirteen healthy subjects were enrolled and completed the study.

[3] = Population 2-compartment PK model with oral absorption (BK challenge study); type: in vivo, human; conditions: population PK model parameter estimate (CV %)
Description: A PK/PD analysis using the same approach as in the icatibant evaluation was conducted. […] PK was analyzed using a two-compartment body model with first-order oral absorption and a lag time; results are shown in Table 4. For the PK/PD model a simple Emax-model with a direct link was utilized. The PK/PD model was used to simulate PK profiles (N=1000) and calculate probability of durations of effect as well as to visualize effect-time profiles; see FIGS. 4 and 5.

clinical = conditions: human, in vivo, po, 12 mg
Description: On Days 4 to 8, subjects received once daily oral doses of 200 mg itraconazole one hour before start of a standard meal.
Trough plasma concentrations of itraconazole were determined by taking predose plasma samples on Days 4-7, to document exposure to itraconazole.

rat B2 receptor = target: T1, rat B2 receptor (Rattus norvegicus, UniProt P25023); assay: Antagonist potency in cells expressing rat B2 receptor; type: cell-based; conditions: compared with human B2 receptor
T1 construct: expressed in transfected cells
T1 sequence (P25023 1-396): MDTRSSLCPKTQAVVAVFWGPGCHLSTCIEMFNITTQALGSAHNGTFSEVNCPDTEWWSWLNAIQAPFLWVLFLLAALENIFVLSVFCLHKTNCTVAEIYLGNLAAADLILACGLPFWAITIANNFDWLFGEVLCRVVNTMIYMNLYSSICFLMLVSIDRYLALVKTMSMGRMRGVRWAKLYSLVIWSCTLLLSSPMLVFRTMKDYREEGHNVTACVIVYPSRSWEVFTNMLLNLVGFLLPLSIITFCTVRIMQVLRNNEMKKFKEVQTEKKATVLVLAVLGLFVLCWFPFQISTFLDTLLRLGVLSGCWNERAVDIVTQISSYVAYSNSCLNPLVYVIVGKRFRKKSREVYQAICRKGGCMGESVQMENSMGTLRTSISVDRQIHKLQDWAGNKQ
Text: (§1) The bradykinin B2 receptor is well known for its species selective pharmacology (Paquet et al., Br. J. Pharmacol. (126), 1083-1090, 1999 (DOI: 10.1038/sj.bjp.0702403); Burgess et al., Br. J. Pharmacol. (129), 77-86, 2000 (DOI: 10.1038/sj.bjp.0703012)). […] Pharmacol. 11:916; DOI: 10.3389/fphar.2020.00916.

human B2 receptor = target: T2, human B2 receptor (Homo sapiens, UniProt P30411); assay: Antagonist potency in cells expressing human B2 receptor; type: cell-based
T2 sequence (P30411 1-391): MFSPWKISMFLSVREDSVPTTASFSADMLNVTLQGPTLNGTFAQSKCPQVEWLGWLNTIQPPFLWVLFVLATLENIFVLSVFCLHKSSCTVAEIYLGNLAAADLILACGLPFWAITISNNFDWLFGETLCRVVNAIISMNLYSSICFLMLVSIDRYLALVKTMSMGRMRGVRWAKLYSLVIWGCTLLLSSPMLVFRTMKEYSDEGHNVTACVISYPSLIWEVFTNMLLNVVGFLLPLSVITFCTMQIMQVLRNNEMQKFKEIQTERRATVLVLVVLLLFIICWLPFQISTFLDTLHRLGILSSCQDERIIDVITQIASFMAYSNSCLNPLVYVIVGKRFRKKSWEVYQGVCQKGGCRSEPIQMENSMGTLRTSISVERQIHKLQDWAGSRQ
Text: as §1

Plasma protein binding = type: in vitro ADME; conditions: human
[4] = 22 mg, HCHF breakfast vs fasted
[5] = human, plasma, oral, 1 mg, fasted, mean
[6] = human, plasma, oral, 2 mg, fasted, mean
[7] = human, plasma, oral, 4.5 mg, fasted, mean
[8] = human, plasma, oral, 12 mg, fasted, mean
[9] = human, plasma, oral, 22 mg, after HCHF breakfast, mean
[10] = human, plasma, oral, 22 mg, fasted, mean

Sequence of CYP3A4 (P08684 whole entry): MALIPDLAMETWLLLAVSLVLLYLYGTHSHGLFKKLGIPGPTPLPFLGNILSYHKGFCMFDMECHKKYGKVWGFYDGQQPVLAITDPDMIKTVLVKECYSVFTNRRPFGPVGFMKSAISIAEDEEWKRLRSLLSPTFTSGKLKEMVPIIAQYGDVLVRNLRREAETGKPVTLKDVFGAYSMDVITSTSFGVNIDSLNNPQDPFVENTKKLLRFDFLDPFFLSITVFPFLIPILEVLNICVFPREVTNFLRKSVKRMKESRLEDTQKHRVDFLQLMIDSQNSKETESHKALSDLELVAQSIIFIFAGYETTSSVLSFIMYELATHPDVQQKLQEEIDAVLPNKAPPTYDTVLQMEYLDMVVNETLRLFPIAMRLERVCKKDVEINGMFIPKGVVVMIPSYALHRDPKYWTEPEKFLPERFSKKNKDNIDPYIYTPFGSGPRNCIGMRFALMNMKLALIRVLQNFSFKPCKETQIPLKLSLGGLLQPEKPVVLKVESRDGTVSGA

Question: Which results are given for [2H][C@@](C)(NC(=O)COC(F)F)c1cc(F)cc(Cl)c1COc1cccc2c(-c3ncnn3C)cc(C)nc12 [compound of formula (I)]?
Answer: CL/F ([1]; 1 mg, fasted, mean): 42.3 L/h; CL/F ([1]; 2 mg, fasted, mean): 33.8 L/h; CL/F ([1]; 4.5 mg, fasted, mean): 37.6 L/h; CL/F ([1]; 12 mg, fasted, mean): 40.9 L/h; time therapeutically effective plasma levels maintained ([1]; 22 mg, HCHF breakfast cohort): more than 12 h; time to reach therapeutically effective plasma levels ([1]; 22 mg, HCHF breakfast cohort): ≤ 15 min; higher AUClast after HCHF breakfast [1, 4]: 49%; lower Cmax after HCHF breakfast [1, 4]: 32%; CL/F ([1]; 22 mg, after HCHF breakfast, mean): 25.3 L/h; Mean (±SD) C12h ([1]; 22 mg, fasted): 8.34 ± 4.24 ng/mL; Mean C24h ([1]; 22 mg, fasted): 1.12 ± 0.786 ng/mL; CL/F ([1]; 22 mg, fasted, mean): 31.5 L/h; time to reach therapeutic efficacious threshold plasma concentration ([1]; all doses): ≤ 15 min; time plasma levels maintained at therapeutic efficacious threshold ([1]; doses of 12 mg and 22 mg): approximately 12 h; Tmax ([1]; human, plasma, oral, 1 mg to 22 mg, fasting, read-out: Median tmax in the dose range): 0.5 to 1 h; Tmax ([1]; human, plasma, oral, 1 mg to 22 mg, fasting, read-out: range of individual tmax values): 0.25 to 1.02 h; AUC(0-t) [1, 5]: 33 ng·h/mL; Cmax [1, 5]: 11.1 ng/mL; concentration at 0.25 h [1, 5]: 5.99 ng/mL; concentration at 12 h ([1]; human, plasma, oral, 1 mg, fasted, mean, read-out: C12h): 0.528 ng/mL; Vd/F [1, 5]: 190 L; half-life ([1]; human, plasma, oral, 1 mg, fasted, mean, read-out: t1/2 (converted)): 3.49 h; Tmax ([1]; human, plasma, oral, 1 mg, fasted, median, read-out: tmax): 0.5 h; AUC(0-t) [1, 6]: 66 ng·h/mL; Cmax [1, 6]: 19.8 ng/mL; concentration at 0.25 h [1, 6]: 12.9 ng/mL; concentration at 12 h ([1]; human, plasma, oral, 2 mg, fasted, mean, read-out: C12h): 0.81 ng/mL; Vd/F [1, 6]: 181 L; half-life ([1]; human, plasma, oral, 2 mg, fasted, mean, read-out: t1/2 (converted)): 4.26 h; Tmax ([1]; human, plasma, oral, 2 mg, fasted, median, read-out: tmax): 0.75 h; AUC(0-t) [1, 7]: 129 ng·h/mL; Cmax [1, 7]: 32.9 ng/mL; concentration at 0.25 h [1, 7]: 13 ng/mL; concentration at 12 h ([1]; human, plasma, oral, 4.5 mg, fasted, mean, read-out: C12h): 1.93 ng/mL; Vd/F [1, 7]: 222 L; half-life ([1]; human, plasma, oral, 4.5 mg, fasted, mean, read-out: t1/2 (converted)): 4.36 h; Tmax ([1]; human, plasma, oral, 4.5 mg, fasted, median, read-out: tmax): 1 h; AUC(0-t) [1, 8]: 369 ng·h/mL; Cmax [1, 8]: 97.3 ng/mL; concentration at 0.25 h [1, 8]: 60.3 ng/mL; concentration at 12 h ([1]; human, plasma, oral, 12 mg, fasted, mean, read-out: C12h): 5.58 ng/mL; Vd/F [1, 8]: 235 L; half-life ([1]; human, plasma, oral, 12 mg, fasted, mean, read-out: t1/2 (converted)): 4.25 h; Tmax ([1]; human, plasma, oral, 12 mg, fasted, median, read-out: tmax): 0.5 h; Tmax ([1]; human, plasma, oral, 22 mg, HCHF breakfast vs fasted, read-out: delay of median tmax after HCHF breakfast): ~2 h; AUC(0-t) [1, 9]: 1020 ng·h/mL; Cmax [1, 9]: 145 ng/mL; concentration at 0.25 h [1, 9]: 48.3 ng/mL; concentration at 12 h ([1]; human, plasma, oral, 22 mg, after HCHF breakfast, mean, read-out: C12h): 19.6 ng/mL; Vd/F [1, 9]: 180 L; half-life ([1]; human, plasma, oral, 22 mg, after HCHF breakfast, mean, read-out: t1/2 (converted)): 5.31 h; Tmax ([1]; human, plasma, oral, 22 mg, after HCHF breakfast, median, read-out: tmax): 3 h; AUC(0-t) [1, 10]: 681 ng·h/mL; Cmax [1, 10]: 213 ng/mL; concentration at 0.25 h [1, 10]: 143 ng/mL; concentration at 12 h ([1]; human, plasma, oral, 22 mg, fasted, mean, read-out: C12h): 8.34 ng/mL; Vd/F [1, 10]: 252 L; half-life ([1]; human, plasma, oral, 22 mg, fasted, mean, read-out: t1/2 (converted)): 5.61 h; Tmax ([1]; human, plasma, oral, 22 mg, fasted, median, read-out: tmax): 0.75 h; concentration at 12 h ([1]; human, plasma, oral, 22 mg, fed (HCHF breakfast), read-out: Mean (±SD) C12h): 19.6 ± 10.7 ng/mL; concentration at 24 h ([1]; human, plasma, oral, 22 mg, fed (HCHF breakfast), read-out: Mean C24h): 5.39 ± 5.47 ng/mL; half-life ([1]; human, plasma, po, single oral doses 1-22 mg, read-out: mean t1/2 between doses): 3.5 to 5.6 h; dose proportionality of PK (Cmax, AUClast, AUCinf) ([1]; single oral dose 1 mg to 22 mg, fasting): Dose proportional PK; CYP3A4 substrate (CYP3A4): substrate of CYP3A4; tolerability [2]: well tolerated with no related adverse events reported; CL/F apparent clearance [3]: 34.5 (5.9%) L/h; Ka first order absorption rate constant [3]: 7.97 (25.1%) 1/h; Q/F apparent inter-compartmental clearance [3]: 10.7 (15.8%) L/h; Tlag lag time [3]: 0.181 (9.9%) h; V2/F apparent volume for the central compartment [3]: 101 (4.5%) L; V3/F apparent volume for the peripheral compartment [3]: 35.9 (10.7%) L; Tmax (clinical): 0.5 to 1 h; half-life (clinical): 4.31 h; fold less potent in antagonizing the rat B2 receptor (rat B2 receptor): more than 1000 fold; times more potent at human B2 receptor than icatibant (human B2 receptor): about 20 times; intrinsic agonist activity (human B2 receptor; B2 receptor): devoid of intrinsic agonist activity; Kb (human B2 receptor; human B2 receptor, read-out: Kb value to antagonize BK activation): 0.15 nM; antagonist potency at recombinant human B2 receptors (human B2 receptor; recombinant): 0.15 nM; fraction unbound (Plasma protein binding): 0.038
